In ChEMBL document CHEMBL1145174, “Potent 4-aryl- or 4-arylalkyl-substituted 3-isoxazolol GABA(A) antagonists: synthesis, pharmacology, and molecular modeling” (J Med Chem, 2005):

How the values were obtained:
[1] = system: GABA-A receptor (Mus musculus); test: cells
[2] = target: GABA-A receptor; anion channel; test: Displacement of [3H]muscimol from rat brain gamma-aminobutyric-acid GABA-A receptor

IC50 [1] [µM]	Ki [2] [µM]	Structure (SMILES)
0.334	0.82	O=c1[nH]oc(C2CCNCC2)c1-c1cccc2ccccc12
0.113	0.016	Oc1noc(C2CCNCC2)c1Cc1ccc2ccccc2c1Cl
0.126	0.25	Oc1noc(C2CCNCC2)c1Cc1ccc2ccccc2c1Sc1ccccc1
0.37	–	Oc1noc(C2CCNCC2)c1Cc1ccc2ccccc2c1
0.242	0.019	Oc1noc(C2CCNCC2)c1Cc1ccc2ccccc2c1F
0.061	0.028	CSc1c(Cc2c(O)noc2C2CCNCC2)ccc2ccccc12
0.042	0.01	Oc1noc(C2CCNCC2)c1Cc1ccc2ccccc2c1Br
0.141	0.036	Oc1noc(C2CCNCC2)c1-c1ccc2ccccc2c1
0.159	0.22	Oc1noc(C2CCNCC2)c1-c1ccccc1
0.14	0.028	N#Cc1c(Cc2c(O)noc2C2CCNCC2)ccc2ccccc12
0.226	0.045	Oc1noc(C2CCNCC2)c1Cc1ccc2cccc(Br)c2c1
0.384	0.109	Oc1noc(C2CCNCC2)c1Cc1ccc2ccc(Br)cc2c1
0.215	0.08	Oc1noc(C2CCNCC2)c1Cc1ccc2c(Br)cccc2c1
0.198	0.021	Oc1noc(C2CCNCC2)c1Cc1ccc2ccccc2c1-c1ccccc1
